Assay results reported in patent US9062072B2, “Inhibitors of HIF and angiogenesis” (Emory University, priority 2010, dated 2015).
Like-named read-outs stand apart in the source and are kept apart here.

Test system: HIF-1-mediated transcription
Test: HIF-1-mediated transcription under hypoxia, LN229-HRE-Lux luciferase reporter assay
Type: cell-based, human
Conditions: for IC50: LN229-HRE-Lux cells, hypoxia (1% O2)
Protocol: The synthesized analogues were evaluated for their potential to inhibit HIF-1-mediated transcription under hypoxia (1% O2) using a human glioma cell line LN229-HRE-Lux, which stably expresses a hypoxia-responsive luciferase reporter gene (Table 1-9). […] The compounds were tested in single (n=1) or multiple (n>1) independent experiments each carried out in quadruplicate.
LN229-HRE-luciferase human glioblastoma cells were used to perform the assay. […] 48-well plates were seeded with 3.10^4 cells per well and incubated under normoxic conditions for 24 h. Cells were then pre-treated with different concentrations of KCN-1 or its analogues for 1 h and then transferred to hypoxic conditions. After 24 h, media was aspirated, cells were lysed and reporter activity was measured in the lysate using Luciferase Assay System (Promega, Madison, Wis.) with 20/20^n Luminometer (Promega).

[1] = Homo sapiens, 24 h, Table 2, 24 h, read-out: IC50
[2] = Homo sapiens, 24 h, 24 h, read-out: IC50
[3] = Homo sapiens, 24 h, Table 7, 24 h, results from single runs, read-out: IC50
[4] = Homo sapiens, 24 h, Table 4, 24 h, read-out: IC50
[5] = Homo sapiens, 24 h, Table 8, 24 h, results from single runs, read-out: IC50
[6] = Homo sapiens, 24 h, Table 1, 24 h, read-out: IC50

`COc1ccc(S(=O)(=O)N(Cc2ccc3c(c2)C=CC(C)(C)O3)C(C)(C)C)cc1OC` [Compound 5d, N-tert-Butyl-N-(2,2-dimethyl-2H-chromen-6-ylmethyl)-3,4-dimethoxy-benzenesulfonamide] was tested, and the IC50 [1] was 3500 nM and the IC50 [2] was 3500 nM.
`COc1ccc(S(=O)(=O)N(Cc2ccc3c(n2)C=CC(C)(C)O3)C2CCCCC2)cc1OC` [Compound 26e, N-Cyclohexyl-N-((2,2-dimethyl-2H-pyrano[3,2-b]pyridin-6-yl)methyl)-3,4-dimethoxybenzenesulfonamide] showed an IC50 [3] of 800 nM.
Work on `COc1ccc(S(=O)(=O)N(Cc2ccc3c(n2)C=CC(C)(C)O3)c2ccccc2)cc1OC` [Compound 26a, N-((2,2-dimethyl-2H-pyrano[3,2-b]pyridin-6-yl)methyl)-3,4-dimethoxy-N-phenylbenzenesulfonamide] yielded an IC50 [3] of 1300 nM and an IC50 (Homo sapiens, unit inferred, read-out: IC50) of 1300 nM.
With `COc1ccc(S(=O)(=O)N(Cc2ccc3c(n2)C=CC(C)(C)O3)C2CCCCCC2)cc1OC` [Compound 26g, N-Cycloheptyl-N-((2,2-dimethyl-2H-pyrano[3,2-b]pyridin-6-yl)methyl)-3,4-dimethoxybenzenesulfonamide] the IC50 [3] was 6600 nM.
`COc1ccc(S(=O)(=O)N(Cc2cnc3ccccc3c2)c2ccccc2)cc1OC` [Compound 13, 3,4-Dimethoxy-N-phenyl-N-(quinolin-3-ylmethyl)benzenesulfonamide] showed an IC50 [4] of 1300 nM and an IC50 [2] of 3500 nM.
Work on `CCCCN(Cc1ccc2c(n1)C=CC(C)(C)O2)S(=O)(=O)c1ccc(OC)c(OC)c1` [Compound 26b, N-Butyl-N-((2,2-dimethyl-2H-pyrano[3,2-b]pyridin-6-yl)methyl)-3,4-dimethoxybenzenesulfonamide] yielded an IC50 [3] of 900 nM.
In the case of `CC(C)S(=O)(=O)N(Cc1ccc2c(n1)C=CC(C)(C)O2)c1ccccc1` [Compound 26l, N-((2,2-Dimethyl-2H-pyrano[3,2-b]pyridin-6-yl)methyl)-N-phenylpropane-2-sulfonamide], the IC50 [5] is reported as 13400 nM.
Compound `CC1(C)C=Cc2nc(CN(c3ccccc3)S(=O)(=O)C3CCCCC3)ccc2O1` [Compound 26k, N-((2,2-Dimethyl-2H-pyrano[3,2-b]pyridin-6-yl)methyl)-N-phenylcyclohexanesulfonamide] has an IC50 (Homo sapiens, 24 h, Table 8, results from single runs) of 400 nM.
In the case of `CCC1(C)C=Cc2cc(CN(c3ccccc3)S(=O)(=O)c3ccc(OC)c(OC)c3)ccc2O1` (stereo not drawn) [Compound 10, N-((2-Ethyl-2-methyl-2H-chromen-6-yl)methyl)-3,4-dimethoxy-N-phenylbenzenesulfonamide], the IC50 [4] is reported as 3100 nM and the IC50 [2] is reported as 2200 nM.
`COc1ccc(S(=O)(=O)N(Cc2cnc3c(c2)C=CC(C)(C)O3)C2CCCCC2)cc1OC` [Compound 20b, N-Cyclohexyl-N-((2,2-dimethyl-2H-pyrano[2,3-b]pyridin-6-yl)methyl)-3,4-dimethoxybenzenesulfonamide] was tested, and the IC50 (Homo sapiens, 24 h, Table 6, 24 h, read-out: IC50) was greater than 25000 nM.
For `COc1ccc(S(=O)(=O)N(CCC(C)C)Cc2ccc3c(c2)C=CC(C)(C)O3)cc1OC` [Compound 5f, N-(2,2-Dimethyl-2H-chromen-6-ylmethyl)-3,4-dimethoxy-N-(3-methyl-butyl)-benzenesulfonamide], the IC50 [1] was 1600 nM.
With `COc1ccc(S(=O)(=O)N(Cc2ccc3c(n2)C=CC(C)(C)O3)C2CCCCCCC2)cc1OC` [Compound 26h, N-Cyclooctyl-N-((2,2-dimethyl-2H-pyrano[3,2-b]pyridin-6-yl)methyl)-3,4-dimethoxybenzenesulfonamide] the IC50 [3] was 700 nM.
`CC(C)c1ccc(S(=O)(=O)N(Cc2cc3c(cn2)OC(C)(C)C=C3)C2CCCCC2)cc1` [Compound 36c, N-Cyclohexyl-N-((2,2-dimethyl-2H-pyrano[2,3-c]pyridin-6-yl)methyl)-4-isopropylbenzenesulfonamide] gave an IC50 (Homo sapiens, 24 h, Table 9, results from single runs) of 1100 nM and an IC50 (Homo sapiens, 24 h) of 1080 nM.
`COc1ccc(S(=O)(=O)N(Cc2ccc3c(n2)C=CC(C)(C)O3)C2CCC2)cc1OC` [Compound 26i, N-Cyclobutyl-N-((2,2-dimethyl-2H-pyrano[3,2-b]pyridin-6-yl)methyl)-3,4-dimethoxybenzenesulfonamide] was tested, and the IC50 [3] was 250 nM, the IC50 [2] was 250 nM and the “fold higher potency than KCN-1” value (IC50 compared with KCN-1, LN229-HRE-Lux reporter assay) was roughly 3 fold. For the same compound, the IC50 (24 h, read-out: IC50) was 400 nM.
In the case of `COc1ccc(S(=O)(=O)N(Cc2ccc3c(c2)C=CC(C)(C)O3)c2ccccc2)cc1OC` [KCN-1, N-((2,2-dimethyl-2H-chromen-6-yl)methyl)-3,4-dimethoxy-N-phenylbenzenesulfonamide, reference compound], the IC50 (Homo sapiens, n=26, read-out: IC50) is reported as 700 ± 400 nM.
In the case of `CC1(C)C=Cc2nc(CN(c3ccccc3)S(=O)(=O)c3ccc(-c4ccccc4)cc3)ccc2O1` [Compound 26q, N-((2,2-Dimethyl-2H-pyrano[3,2-b]pyridin-6-yl)methyl)-N-phenylbiphenyl-4-sulfonamide], the IC50 [5] is reported as 3400 nM.
`COc1ccc(S(=O)(=O)N(Cc2ccc3c(c2)C=CC(C)(C)O3)c2ccccc2)cc1` [Compound 5j, N-((2,2-Dimethyl-2H-chromen-6-yl)methyl)-4-methoxy-N-phenylbenzenesulfonamide] showed an IC50 (Homo sapiens, 24 h, Table 3, 24 h, read-out: IC50) of 600 nM.
`CC1(C)C=Cc2nc(CN(c3ccccc3)S(=O)(=O)c3ccc4c(c3)OCCO4)ccc2O1` [Compound 26t, N-((2,2-dimethyl-2H-pyrano[3,2-b]pyridin-6-yl)methyl)-N-phenyl-2,3-dihydrobenzo[b][1,4]dioxine-6-sulfonamide] was tested, and the IC50 [5] was 900 nM.
Work on `COc1ccc(S(=O)(=O)N(Cc2ccc3c(c2)CC(C)(C)O3)C2CCCCC2)cc1OC` [Compound 16e, N-Cyclohexyl-N-((2,2-dimethyl-2,3-dihydrobenzofuran-5-yl)methyl)-3,4-dimethoxybenzenesulfonamide] yielded an IC50 (Homo sapiens, 24 h, Table 5) of 8200 nM and an IC50 (Homo sapiens, 24 h) of 8200 nM.
In the case of `COc1ccc(NCc2ccc3c(c2)C=CC(C)(C)O3)cc1OC` [Compound 2a, (3,4-Dimethoxy-phenyl)-(2,2-dimethyl-2H-chromen-6-ylmethyl)-amine], the IC50 [6] is reported as 3000 nM.
Work on `CC1(C)C=Cc2cc(CNc3ccccc3Br)ccc2O1` [Compound 2e, (2-Bromo-phenyl)-(2,2-dimethyl-2H-chromen-6-ylmethyl)-amine] yielded an IC50 [6] greater than 25000 nM.
